Source: patent US10801879B2, “Magnesium zinc oxide nanostructure modified biosensor and monitoring of response of cell population to an agent using the same” (Rutgers, The State University of New Jersey, priority 2015, dated 2020)
Converted amounts (≈) assume the structure as drawn.

Experiments:
S. cerevisiae (yeast) [1] = test: MZOnano-QCM monitoring of antifungal drug effects on yeast; format: cell-based; details: drug introduced at 330 min after initial growth seeding
From the text: (§1) The result using various embodiments in this patent document accurately detects both drug effects in a rapid manner.
(§2) This is due to the fact that the spectroscopic method relies on light absorption by the suspended cells, and dead yeast cells remain in suspension, thus contributing to the absorption.

S. cerevisiae (yeast) [2] = test: Spectrophotometry (OD600) monitoring of antifungal drug effects on yeast; format: cell-based; details: patent calls the identification incorrect
From the text: as §1, §2

[3] = system: VP16-resistant derivative cell line (CEM-V1); test: MZOnano-QCM 48-hour monitoring of drug resistant ALL (CEM-V1) cells; format: cell-based
From the text: (§3) The third example uses the drug VP16 (also known as etoposide, an anticancer agent), VP16-sensitive ALL cell line (CEM) and its VP16-resistant derivative cell line (CEM-V1) as a model for monitoring the effect of anticancer agents on the growth of cancer cells using the MZOnano-QCM sensor device, where the Mg composition x in MZO is 0.03.
The same experiment can be repeated on drug resistant CEM leukemia cells (CEM-V1) using both the MZOnano-QCM sensor and the viability analyzer, and the monitoring can be conducted for 48 hours. […] The drug was added into the cell culture at 4 hours after the initial seeding of 4×10^5 cells. […] The various configurations used in the example in FIG. 11 are the same as those described with respect to FIG. 8, and the various configurations used in the example in FIG. 12 are the same as those described with respect to FIG. 9.

[4] = system: VP16-sensitive ALL cell line (CEM); test: MZOnano-QCM 48-hour monitoring of drug sensitive ALL (CEM) cells; format: cell-based
Method: as §3
For all of the experiments in this example, an initial seeding density of 4×10^5 cells in 2 mL of medium is used, the leukemia cell growth using the MZOnano-QCM is monitored dynamically for 48 hours. The drug (VP16) was introduced into the cell culture after 4 hours after the initial seeding. With reference to FIG. 7, the time-dependent frequency shift of the sensor for the entire 48-hour monitoring period of the drug sensitive CEM cells is shown. In the no-drug case, the frequency shift increases exponentially from 0-40 hours (indicating exponential cell accumulation on the sensing area) and then the frequency shift rate decreases showing saturation of the cell growth. In the case where the drug is introduced into the cell culture in the device, it is observed that the cells continue to grow after the drug has been introduced (4 hours after initial seeding), however, it is seen that the drug has taken effect 16 hours after the drug has been introduced.

[5] = system: antibiotic-sensitive E. coli; test: MZOnano-QCM detection of antibiotic effects on sensitive E. coli; format: cell-based; details: ampicillin-sensitive cells, 256 μg/mL
Method: (§4) The first example illustrates the application of a magnesium zinc oxide (MZO) nanostructure-modified quartz crystal microbalance (MZOnano-QCM) biosensor disclosed in this document with reference to FIGS. 1A and 1B to dynamically monitor antibiotic effects on sensitive and resistant E. coli cells. MZO-nanostructures were grown on a standard QCM top-electrode using metal-organic chemical-vapor deposition. ZnO and MZO nanostructured-films are chosen for their multi-functionality and biocompatibility. Their surface-wettability and morphology can be controlled, offering high-sensitivity to various biological/biochemical species. MZO can withstand a larger pH range than ZnO does. Combining advantages of MZO nanostructures with the dynamic impedance spectrum capability of QCM makes MZOnano-QCM a highly-sensitive dynamic biosensor well-suited for AMR detection. The growth of E. coli on ZnO and MZO nanostructures was determined by 90-minute incubation.
(§5) FIGS. 4A-4D show the detection of antibiotic effects on E. coli using regular QCM, ZnOnano-QCM and MZOnano-QCM. The regular QCM failed detection due to low sensitivity while both ZnOnano- and MZOnano-QCM enable accurate detection of bacterial count during active growth though frequency shifts (Δf). The MZOnano-QCM offered four-fold higher sensitivity than ZnOnano-QCM. […]

resistant E. coli = test: MZOnano-QCM detection of antimicrobial resistance of resistant E. coli; format: cell-based; details: ampicillin-resistant cells, 256 μg/mL
Method: as §4, §5

S. epidermidis = test: Standard broth dilution assay (MIC), S. epidermidis; format: cell-based; details: Staphylococcus epidermidis
P. aeruginosa = details: FIG. 15(b)
Method: The sensor was placed inside an incubator at 37° C. while automatically measuring the acoustic spectrum every 15 minutes for 3 hours.

How did the “drug effect on yeast detected by sensor” value (S. cerevisiae (yeast) [1]) turn out when `C[C@@H]1[C@H](O)[C@@H](C)/C=C/C=C/C=C/C=C/C=C/C=C/C=C/[C@H](O[C@@H]2O[C@H](C)[C@@H](O)[C@H](N)[C@@H]2O)C[C@@H]2O[C@](O)(C[C@@H](O)C[C@@H](O)[C@H](O)CC[C@@H](O)C[C@@H](O)CC(=O)O[C@H]1C)C[C@H](O)[C@H]2C(=O)O` [amphotericin] was run?
The value was “cell-killing effects”.

And the “drug effect on yeast as identified by OD600 method” value (S. cerevisiae (yeast) [2])?
Its value is “fungi-static”.

How did the “drug effect on yeast detected by sensor” value (S. cerevisiae (yeast) [1]) turn out when `Clc1ccc(COC(Cn2ccnc2)c2ccc(Cl)cc2Cl)c(Cl)c1` (stereo not drawn) [miconazole] was run?
Its value is “growth inhibition effects”.

With `COc1cc([C@@H]2c3cc4c(cc3[C@@H](O[C@@H]3O[C@@H]5CO[C@@H](C)O[C@H]5[C@H](O)[C@H]3O)[C@H]3COC(=O)[C@H]23)OCO4)cc(OC)c1O` [VP16, etoposide] as the compound, how does the “cell response (frequency shift trend) in the presence of the drug” value ([3]; 48 hours monitoring) read?
Its value is “continuous cell growth”.

What about the “time after addition of drug at which frequency shift started to decrease compared to no-drug control” value ([3]; drug added 4 hours after initial seeding of 4×10^5 cells) of the same compound?
Its value is roughly 15 h.

And the “cell response (frequency shift) after drug took effect” value ([4]; 20 hours to 48 hours)?
Its value is “cells start to die (or stop to proliferate)”.

And the “time after drug introduction at which drug has taken effect” value ([4]; drug introduced 4 hours after initial seeding of 4×10^5 cells)?
The value was 16 h.

Which “time within which Δf declined upon treatment” value [5] does the source give for `CC1(C)S[C@@H]2[C@H](NC(=O)[C@H](N)c3ccccc3)C(=O)N2[C@H]1C(=O)O` [ampicillin] here?
The value was no more than 10 min.

What about the “time within which Δf stopped increasing upon treatment” value [5] of the same compound?
The value was no more than 5 min.

And the “Δf response upon treatment” value (resistant E. coli)?
The value was “continued increasing”.

Which results are given for `O=C(O)c1cn(C2CC2)c2cc(N3CCNCC3)c(F)cc2c1=O` [ciprofloxacin]?
MIC (S. epidermidis): 0.05 µg/mL (≈ 0.151 µM); motional resistance in presence or absence of drug (P. aeruginosa): dramatically different
